According to US20250115582A1, “MOLECULAR GLUE DEGRADERS AND METHODS OF USING THE SAME” (Monte Rosa Therapeutics, Inc., priority 2022, published 2025):

Target: T1, CK1a (Homo sapiens, UniProt P48729+Q96SW2)
T1 construct: host or cells: HEK293 and HEK293 CRBN knock-out clone B2 (generated internally)
Test: Western blot assay of CK1a levels in HEK293 and HEK293 CRBN knock-out cells
Assay type: cell-based
Details: 0.1, 1, 10 μM, 24 hours
Description: FIG. 1 depicts effects of Compound 147 on CK1a levels in an HEK293 cell line in comparison to effects of Compound 147 on CK1a levels in a cereblon (CRBN) knock-out HEK293 cell line.
HEK293 cell line was purchased from ATCC (CRL-1573). HEK293 CRBN knock out (k/o) cell line (B2) was generated internally using CRISPR/Cas9 method and clonally expanded. Cells were plated at 2×10^5 cells per well in 6-well tissue culture plates (VWR) in 2 ml of DMEM media (Gibco) containing 10% FBS (Gibco), and incubated for 16 hours at 37° C., 5% CO2. Compounds were added to final concentration of 0.1 μM, 1 μM, 10 μM (DMSO concentration was kept constant at 0.1%), following incubation at 37° C., 5% CO2 for additional 24 hours. Cell lysis was performed using RIPA buffer (Pierce) containing Halt™ Protease Inhibitor Cocktail (ThermoFisher Scientific). Lysates were boiled at 95° C. for 10 minutes and 12 μg of protein lysate per sample was resolved by SDS-PAGE using 12% gels (BioRad) and transferred to nitrocellulose membrane (BioRad). Membranes were blocked using LI-COR blocking buffer (LI-COR) at room temperature for 1 hour, followed by overnight incubation with rabbit anti-CK1a (Abcam ab206652), rabbit anti-CRBN (Sigma HPA045910) and mouse anti-α-tubulin (Sigma T9026) antibodies at 4° C. […]

T1 sequence (P48729 whole entry): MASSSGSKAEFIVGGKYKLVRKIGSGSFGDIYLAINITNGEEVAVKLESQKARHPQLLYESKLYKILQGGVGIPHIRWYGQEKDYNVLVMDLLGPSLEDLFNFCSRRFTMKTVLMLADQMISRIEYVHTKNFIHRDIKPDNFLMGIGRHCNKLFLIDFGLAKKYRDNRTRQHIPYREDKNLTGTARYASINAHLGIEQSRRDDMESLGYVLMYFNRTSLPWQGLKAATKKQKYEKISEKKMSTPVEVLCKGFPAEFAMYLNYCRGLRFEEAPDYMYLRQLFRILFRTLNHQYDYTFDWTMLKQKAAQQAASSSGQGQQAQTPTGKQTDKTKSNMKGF
T1 sequence (Q96SW2 whole entry): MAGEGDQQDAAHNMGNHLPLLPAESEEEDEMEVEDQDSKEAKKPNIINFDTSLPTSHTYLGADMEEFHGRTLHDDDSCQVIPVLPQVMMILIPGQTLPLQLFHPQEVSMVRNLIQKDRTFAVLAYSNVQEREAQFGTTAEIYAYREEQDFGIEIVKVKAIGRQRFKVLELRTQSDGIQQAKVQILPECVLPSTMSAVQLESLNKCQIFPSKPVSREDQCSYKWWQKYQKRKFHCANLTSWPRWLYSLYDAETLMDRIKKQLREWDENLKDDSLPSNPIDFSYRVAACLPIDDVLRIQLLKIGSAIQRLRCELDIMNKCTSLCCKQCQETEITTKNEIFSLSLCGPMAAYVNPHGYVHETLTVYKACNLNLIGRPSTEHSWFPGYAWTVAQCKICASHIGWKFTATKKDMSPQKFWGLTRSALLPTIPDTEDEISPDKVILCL
T1 sequence (Q16531 2-1140 partner limits assumed): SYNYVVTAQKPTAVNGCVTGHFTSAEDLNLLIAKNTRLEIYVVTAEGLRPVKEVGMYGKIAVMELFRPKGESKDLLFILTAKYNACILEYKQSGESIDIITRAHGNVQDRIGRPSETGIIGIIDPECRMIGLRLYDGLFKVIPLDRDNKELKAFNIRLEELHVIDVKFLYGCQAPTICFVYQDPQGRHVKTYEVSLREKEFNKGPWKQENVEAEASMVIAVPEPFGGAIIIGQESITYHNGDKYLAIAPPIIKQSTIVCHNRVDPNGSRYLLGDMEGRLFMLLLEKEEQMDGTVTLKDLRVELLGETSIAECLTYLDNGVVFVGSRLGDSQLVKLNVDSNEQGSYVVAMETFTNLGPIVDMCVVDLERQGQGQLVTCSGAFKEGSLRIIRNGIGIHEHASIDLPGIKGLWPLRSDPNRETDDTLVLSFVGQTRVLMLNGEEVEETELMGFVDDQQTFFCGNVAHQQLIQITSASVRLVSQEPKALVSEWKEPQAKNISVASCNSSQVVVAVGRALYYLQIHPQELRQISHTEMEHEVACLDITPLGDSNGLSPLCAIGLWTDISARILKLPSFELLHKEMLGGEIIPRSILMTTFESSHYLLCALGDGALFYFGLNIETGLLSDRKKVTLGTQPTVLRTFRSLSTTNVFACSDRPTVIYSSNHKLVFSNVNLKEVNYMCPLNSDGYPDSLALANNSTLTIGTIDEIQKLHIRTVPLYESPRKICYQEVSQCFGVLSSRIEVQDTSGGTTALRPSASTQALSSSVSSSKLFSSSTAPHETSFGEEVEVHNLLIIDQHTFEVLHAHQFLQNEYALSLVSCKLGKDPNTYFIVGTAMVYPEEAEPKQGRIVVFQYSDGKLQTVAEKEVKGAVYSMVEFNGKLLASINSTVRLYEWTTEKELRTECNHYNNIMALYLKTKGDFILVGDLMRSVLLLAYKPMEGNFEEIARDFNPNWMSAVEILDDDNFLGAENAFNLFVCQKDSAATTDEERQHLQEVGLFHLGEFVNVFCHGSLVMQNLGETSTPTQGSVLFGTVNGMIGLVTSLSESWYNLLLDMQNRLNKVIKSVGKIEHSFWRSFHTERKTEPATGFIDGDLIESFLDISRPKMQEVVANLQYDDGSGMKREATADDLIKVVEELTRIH

## O=C1CCC(N2Cc3cc(NC(=O)c4ccc(Cl)cc4)ccc3C2=O)C(=O)N1 (centres unmarked) [Compound 147]
HEK293 CRBN knock-out cell line
  CK1a levels in cereblon (CRBN) knock-out HEK293 cell line (Western blot, FIG. 1): no effect on CK1a levels
HEK293 cell line, cereblon present
  CK1a levels in HEK293 cell line (Western blot, FIG. 1): decreases CK1a levels
